We go through one compound from article PMC9516332 (Frontiers in Oncology, 2022).

Common to all, as to assay: Kinase panel profiling at 1 µmol/L (MSA or IMAP), percentage inhibition
What all share (format): biochemical

Experiment [1] has as its target panel of 255 wild-type kinases (Homo sapiens, UniProt P16591). The settings on record: kinase FER; 1 µmol/L single concentration; read-out: %-inhibition at 1 µmol/L, FER.
Experiment [2] has as its target panel of 255 wild-type kinases (Homo sapiens, UniProt O75582). Conditions: MSK1; 1 µmol/L single concentration; read-out: %-inhibition, MSK1.
Experiment [3] has as its target panel of 255 wild-type kinases (Homo sapiens, UniProt P27361). The settings on record: kinase Erk1; 1 µmol/L single concentration; read-out: %-inhibition at 1 µmol/L, Erk1.
The target in experiment [4] is panel of 255 wild-type kinases (Homo sapiens, UniProt P53355). The settings on record: kinase DAPK1; 1 µmol/L single concentration; read-out: %-inhibition at 1 µmol/L, DAPK1.
The target in experiment [5] is panel of 255 wild-type kinases (Homo sapiens, UniProt P24723). Conditions: kinase PKCη; 1 µmol/L single concentration; read-out: %-inhibition at 1 µmol/L, PKCη.
The target in experiment [6] is panel of 255 wild-type kinases (Homo sapiens, UniProt P28482). The settings on record: kinase Erk2; 1 µmol/L single concentration; read-out: %-inhibition at 1 µmol/L, Erk2.
The target of experiment [7] is panel of 255 wild-type kinases (Homo sapiens, UniProt P49760). The settings on record: kinase CLK2; 1 µmol/L single concentration; read-out: %-inhibition at 1 µmol/L, CLK2.
In experiment [8] the target is panel of 255 wild-type kinases (Homo sapiens, UniProt P27448). The settings on record: MARK3; 1 µmol/L single concentration; read-out: %-inhibition, MARK3.
For experiment [9], the target named is panel of 255 wild-type kinases (Homo sapiens, UniProt Q96RG2). The settings on record: PASK; 1 µmol/L single concentration; read-out: %-inhibition, PASK.
Experiment [10] deals with panel of 255 wild-type kinases (Homo sapiens, UniProt P12931). Conditions: kinase SRC; 1 µmol/L single concentration; read-out: %-inhibition at 1 µmol/L, SRC.
Experiment [11] concerns the target T1, panel of 255 wild-type kinases (Homo sapiens, UniProt Q9BXA7).
T1 sequence (Q9BXA7 1-367): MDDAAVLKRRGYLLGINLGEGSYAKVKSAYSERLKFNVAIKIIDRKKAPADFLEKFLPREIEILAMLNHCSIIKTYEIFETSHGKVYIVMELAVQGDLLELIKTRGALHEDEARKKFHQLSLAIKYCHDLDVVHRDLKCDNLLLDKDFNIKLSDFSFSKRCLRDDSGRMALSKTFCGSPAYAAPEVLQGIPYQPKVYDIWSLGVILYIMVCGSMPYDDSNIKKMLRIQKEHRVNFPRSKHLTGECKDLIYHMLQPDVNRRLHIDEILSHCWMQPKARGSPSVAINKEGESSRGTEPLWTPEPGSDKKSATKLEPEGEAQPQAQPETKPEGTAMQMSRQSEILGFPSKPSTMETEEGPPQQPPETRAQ
The settings on record: kinase TSSK1; 1 µmol/L single concentration; read-out: %-inhibition at 1 µmol/L, TSSK1.

Experiment [12] addresses panel of 255 wild-type kinases (Homo sapiens, UniProt O94804). Conditions: kinase LOK; 1 µmol/L single concentration; read-out: %-inhibition at 1 µmol/L, LOK.
Experiment [13] has as its target panel of 255 wild-type kinases (Homo sapiens, UniProt Q9HC98). The settings on record: NEK6; 1 µmol/L single concentration; read-out: %-inhibition, NEK6.
Experiment [14] deals with T2, panel of 255 wild-type kinases (Homo sapiens, UniProt Q08881).
T2 sequence (Q08881 1-620): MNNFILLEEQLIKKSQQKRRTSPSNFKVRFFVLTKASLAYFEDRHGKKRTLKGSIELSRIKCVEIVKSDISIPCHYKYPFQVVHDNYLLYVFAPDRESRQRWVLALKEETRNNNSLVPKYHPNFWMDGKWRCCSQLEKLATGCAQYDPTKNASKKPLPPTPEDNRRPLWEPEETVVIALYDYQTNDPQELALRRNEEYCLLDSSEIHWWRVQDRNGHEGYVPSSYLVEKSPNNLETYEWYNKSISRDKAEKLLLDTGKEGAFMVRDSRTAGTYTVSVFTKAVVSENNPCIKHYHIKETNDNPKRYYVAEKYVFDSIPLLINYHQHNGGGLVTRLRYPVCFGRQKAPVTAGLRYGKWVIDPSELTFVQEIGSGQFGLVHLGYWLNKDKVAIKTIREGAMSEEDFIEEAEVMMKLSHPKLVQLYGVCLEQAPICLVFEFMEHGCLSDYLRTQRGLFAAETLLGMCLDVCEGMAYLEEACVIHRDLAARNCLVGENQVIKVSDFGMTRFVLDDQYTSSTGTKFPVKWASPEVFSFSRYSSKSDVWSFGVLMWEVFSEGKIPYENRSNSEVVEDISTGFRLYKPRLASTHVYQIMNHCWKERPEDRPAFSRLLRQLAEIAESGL
The settings on record: kinase ITK; 1 µmol/L single concentration; read-out: %-inhibition at 1 µmol/L, ITK.

For experiment [15], the target named is panel of 255 wild-type kinases (Homo sapiens, UniProt P16234). The settings on record: kinase PDGFRα; 1 µmol/L single concentration; read-out: %-inhibition at 1 µmol/L, PDGFRα.
In experiment [16] the target is panel of 255 wild-type kinases (Homo sapiens, UniProt Q15759). The settings on record: p38β; 1 µmol/L single concentration; read-out: %-inhibition, p38β.
The target in experiment [17] is panel of 255 wild-type kinases (Homo sapiens, UniProt Q13153). Conditions: PAK1; 1 µmol/L single concentration; read-out: %-inhibition, PAK1.
For experiment [18], the system named is panel of 255 wild-type kinases. Conditions: 1 µmol/L single concentration.
Experiment [19] has as its target panel of 255 wild-type kinases (Homo sapiens, UniProt Q9Y6M4). The settings on record: kinase CK1γ3; 1 µmol/L single concentration; read-out: %-inhibition at 1 µmol/L, CK1γ3.

For `Cc1cc(Nc2ncnc3ccc(NC4=NC(C)(C)CO4)cc23)ccc1Oc1ccn2ncnc2c1` [tucatinib], the inhibition at 1 µM in experiment [1] was 1.35%; in [2], 2.56%; in experiment [3], -2.6%; in experiment [4], 1.6%; in experiment [5] it was -5.44%; in [6], -0.547%. Further, the inhibition at 1 µM in experiment [7] is 5%; in experiment [8] it was -10%; in experiment [9], 0.181%; in [10], -2%; in experiment [11], 2.58%; in experiment [12], 6.43%. The inhibition at 1 µM in experiment [13] was 0.486%; in [14] it was 1.31%; in experiment [15], 30%; in [16], -3.42%; in experiment [17], -1.11%; in experiment [19] it was 11%. The “%-inhibition at 1 µmol/L, FYN [isoform b]” value in experiment [18] (kinase FYN [isoform b]) is given as -1.06%. Also, in experiment [18] (kinase LYNb), the “%-inhibition at 1 µmol/L, LYNb” value was determined as 6%. For the same compound, the “%-inhibition at 1 µmol/L, PKCβ2” value in experiment [18] (kinase PKCβ2) is reported as -1.5%. The “%-inhibition at 1 µmol/L, SRM” value in experiment [18] (kinase SRM) stood at 2.77%.
